Source: patent US9056899B2 (priority 2008, dated 2015)
Converted amounts (≈) assume the structure as drawn.

Legend:
E. coli EMG2 [1] = assay: Ofloxacin killing assay; format: cell-based; details: 60 ng/mL ofloxacin, no phage, 6 hours of treatment
Procedure: Determination of colony forming units. To obtain CFU counts, 150 μL of relevant cultures were collected, washed with 1× phosphate-buffered saline (PBS), recollected, and resuspended in 150 μL of 1×PBS. Serial dilutions were performed with 1×PBS and sampled on LB agar plates. LB agar plates were incubated at 37° C. overnight before counting.
Ofloxacin killing assay. To determine the adjuvant effect of engineered phage (FIG. 1B, FIG. 3A and FIG. 3D), the inventors grew 1:500 dilutions of overnight EMG2 cells for 3 hours and 30 minutes at 37° C. and 300 rpm to late-exponential phase and determined initial CFUs. Then, the inventors added 60 ng/mL ofloxacin by itself or in combination with 10^8 PFU/mL bacteriophage (unmodified φunmod or engineered φLexA, φSoxR, φcsr, φompF, or φCsr-ompF phage) and treated at 37° C. and 300 rpm. At indicated time points, the inventors determined CFUs as described above. Mean killing (Δlog10 (CFU/mL)) was determined by subtracting mean initial log10 (CFU/mL) from mean log10 (CFU/mL) after treatment in order to compare data from different experiments. This protocol was replicated with E. coli RFS289 to determine the ofloxacin-enhancing effect of engineered φlexA3 phage against antibiotic-resistant bacteria (FIG. 2). […]

E. coli EMG2 [2] = assay: Minimum inhibitory concentration of ofloxacin; format: cell-based; details: Escherichia coli, data not shown
E. coli EMG2 [3] = assay: Survival of mice infected with bacteria; format: in vivo; details: 8.8×10^7 CFU/mouse i.p.; 1 hour later i.v. 0.2 mg/kg ofloxacin with or without 10^9 PFU/mouse phage; observed 5 days
Procedure: After 1 hour, the mice received either no treatment or intravenous treatment with no phage, unmodified phage φunmod, or engineered phage φlexA3 with 0.2 mg/kg ofloxacin. 10^9 PFU/mouse phage was used.
Increasing Survival of Mice Infected with Bacteria. To determine the clinical relevance of antibiotic-enhancing phage in vivo, the inventors applied the engineered phage φlexA3 with ofloxacin to prevent death in mice infected with bacteria. Mice were injected with E. coli EMG2 intraperitoneally 1 hour prior to receiving different intravenous treatments (FIG. 3A). Eighty percent of mice that received φlexA3 with ofloxacin survived, compared with 50% and 20% for mice that received φunmod plus ofloxacin or ofloxacin alone, respectively (FIG. 3B).

E. coli EMG2 [4] = assay: Antibiotic resistance assay; format: cell-based; details: 30 ng/mL ofloxacin 24 hours; phage (10^9 PFU/mL) added for the last 12 hours where named
Procedure: Antibiotic resistance assay. To analyze the effect of subinhibitory concentrations of ofloxacin on the development of antibiotic-resistant mutants, the inventors grew 1:10^8 dilutions of overnight EMG2 in LB media containing either no ofloxacin (FIG. 4) or 30 ng/mL ofloxacin (FIG. 7). After 12 hours of growth at 37° C. and 300 rpm, the inventors split the cells grown in no ofloxacin into 100 uL aliquots with no ofloxacin in 60 wells in 96-well plate format (Costar 3370; Fisher Scientific, Pittsburgh, Pa.). The inventors also split the cells grown in 30 ng/mL ofloxacin into 100 uL aliquots in 60 wells with either no phage and 30 ng/mL ofloxacin (FIG. 7B), φunmod phage and 30 ng/mL ofloxacin (FIG. 7C), and φlexA3 and 30 ng/mL ofloxacin (FIG. 7D) in 96-well plate format. The inventors placed the 96-well plates in 37° C. and 300 rpm with plastic bags to minimize evaporation. After 12 hours of treatment, the inventors plated cultures from each well on LB agar+100 ng/mL ofloxacin to select for mutants that developed resistance against ofloxacin. To compare results, the inventors plotted histograms of the number of resistant bacteria found in each well in FIGS. 4 and 8.

With CC1COc2c(N3CCN(C)CC3)c(F)cc3c(=O)c(C(=O)O)cn1c23 (stereo not shown) [ofloxacin] as the molecule, how does the “reduction of bacteria exposed only to ofloxacin” value (E. coli EMG2 [1]) read?
Its value is “about 1.7 log10 (CFU/mL)”.

And the MIC (E. coli EMG2 [2])?
The MIC was 0.06 µg/mL (≈ 0.166 µM).

And the mice that survived (E. coli EMG2 [3])?
The mice that survived was 20%.

What about the “number of mutants resistant to 100 ng/mL ofloxacin (median of 60 samples)” value (E. coli EMG2 [4]) of the same molecule?
The value was 1592.
